Measured values from patent US20170044150A1, “IDENTIFICATION OF COMPOUNDS WHICH INHIBIT ATG8-ATG3 PROTEIN-PROTEIN INTERACTION AND THEIR USE AS ANTIPARASITICAL AGENTS” (THE JOHNS HOPKINS UNIVERSITY, priority 2014, published 2017).

Legend:
hLC3-hAtg3 interaction = target: T1, hLC3-hAtg3 interaction (Homo sapiens, UniProt Q9GZQ8); experiment: SPR protein-protein interaction assay, hLC3-hAtg3; assay type: binding; details: 500 μM
T1 construct: made in house; host or cells: E. coli Rosetta 2
Procedure: Surface Plasmon Resonance (SPR) protein-protein interaction assay. All measurements were carried out on a BiaCore 3000 instrument. We used the previously described SPR competition assay to test inhibition of the PfAtg8-PfAtg3 and hLC3-hAtg3 interaction. The standard running buffer was 10 mM HEPES, 150 mM NaCl, 0.01% Tween 20, adjusted to pH 7.5. Prior to performing SPR assays, all solutions were sterile filtered and degassed for 1 h at room temperature. For small molecule inhibitor studies, the same running buffer was supplemented with 1% DMSO. All dose dependency measurements were carried out in triplicate and corrected for DMSO absorption effects using double referencing with interspersed blank injections and an untreated flow cell on the SPR chip and the SPR analysis software Scrubber 2.0 (BioLogics). For each interaction pair, a new CM5 SPR chip was used. To exclude surface decay during the experiment, positive control injections were interspersed every 12th injection. For all interaction studies, the Atg3 homologue was immobilized and the corresponding Atg8 partner was passed as an analyte over the chip in either the presence or absence of small molecule inhibitors, dissolved to 100 mM in 100% DMSO and tested at 500 μM final concentration. […]

P. falciparum 3D7 = experiment: SYBR Green I growth inhibition assay, blood stage; assay type: cell-based; details: Plasmodium falciparum, 3D7, 3D7 blood stage cultures; read-out: IC50
Procedure: P. falciparum blood stage culturing. P. falciparum 3D7 and FCR3 cultures were maintained using modified, previously published methods at 37° C., 2% hematocrit of human red blood cells (Science 1976, 193, 673-675). Complete culture media consisted of sterile RPMI 1640 media (Life Technologies), supplemented with 10% human serum, 0.005% hypoxanthine, and buffered with final concentrations of 0.6% HEPES and 0.26% NaHCO3. The FCR3 strain was maintained at 3% CO2 and 5% O2, 92% N2 atmosphere, while the 3D7 strain was maintained at 5% CO2, 5% O2, 90% N2 atmosphere.
SYBR Green I growth inhibition assay. 10 μL of 10× compound diluted in RPMI 1640 media (Gibco) with a constant concentration of 1% DMSO was added to a 96 well plate (Costar), 90 μL of 1.5% ring stage, synchronized with 5% w/v sorbitol P. falciparum 3D7 parasites, 1% hematocrit, in culture media with 10% v/v human serum with 10 μg/mL gentamycin. Each compound concentration and 1% v/v DMSO controls were run in triplicate. Plates were incubated at 37° C. in 5% O2, 5% CO2 and 90% N2 for 72 hours. Plates were frozen, thawed, and incubated with 100-μL 2× SYBR green in lysis buffer (20 mM Tris pH 7.5, 5 mM EDTA, 0.008% Saponin, 0.08% TritonX-100) in the dark for at least one hour. Fluorescence was measured with a plate reader (HTS 7000, Perkin Elmer) at excitation/emission wavelengths of 485/535 nm.
Plasmodium parasite growth inhibition assay. P. falciparum 3D7 parasites were cultured as previously described (J Med Chem 57:4521-4531(2014)). Briefly, the parasites were cultured in 10% v/v human serum with 10 μg/mL gentamycin and synchronized with 5% w/v sorbitol. 1.5% ring stage parasites were added to 96 well plates (Costar) containing serial dilutions, performed in triplicate, of compound in RPMI 1640 media (Gibco). Plates were incubated at 37° C. in 5% O2, 5% CO2, and 90% N2 for 72 h. Plates were frozen, thawed, and incubated with 100 μL 2× SYBR green in lysis buffer (20 mM Tris pH 7.5, 5 mM EDTA, 0.008% Saponin, 0.08% TritonX-100) in the dark for 1 h. Fluorescence was measured with a plate reader (HTS 7000, PerkinElmer) at excitation/emission wavelengths of 485/535 nm.

P. falciparum 3D7-GFP = assay type: cell-based; details: 96 hrs post infection
Procedure: In vitro infection of human hepatocytes with P. falciparum 3D7-GFP. The HC-04 cell line (ATCC, Manassas, Va., USA) was maintained in complete medium (IMDM containing 2.5% FCS, 100 units/ml penicillin, 100 μg/ml streptomycin and 2 mM L-glutamine, all from GIBCO®, Life Technologies, Grand Island, N.Y.). P. falciparum 3D7-GFP parasite strain (PLoS ONE 2010, 5, e9156) was propagated in the Parasitology Core facility, the Johns Hopkins Malaria Research Institute. In vitro infection of human hepatocytes was done as described previously (PLoS ONE 2013, 8, e75321). Briefly, salivary glands were sequestered from infected Anopheles gambiae mosquitoes at day 17 after exposure to infective blood meal and homogenates were separated on an OptiPrep™ Density Gradient (Sigma-Aldrich, St. Louis, Mo.) at 12,000×g for 10 minutes. Sporozoites were collected from the gradient interface, washed in complete medium, counted using a hemocytometer and incubated with HC-04 cells at 3:1 sporozoite to hepatocyte ratio for 2 hours at 37° C. […]
Detection of P. falciparum exoerythrocytic forms in vitro. HC-04 human hepatocyte cell line (ATCC, Manassas, Va., USA) was maintained in complete medium (IMDM containing 2.5% FCS, 100 units/ml penicillin, 100 μg/ml streptomycin and 2 mM L-glutamine, all from GIBCO®, Life Technologies, Grand Island, N.Y.). P. falciparum 3D7HT-GFP parasite strain (PLoS One. 5(2):e9156. doi:10.1371/journal.pone.0009156 (2010)) was propagated in the Parasitology Core facility of the Johns Hopkins Malaria Research Institute. In vitro infection of human hepatocytes, and detection and quantification of P. falciparum 3D7HT-GFP EEFs by flow cytometry were performed as previously described (PLoS One. 8(9):e75321. doi:10.1371/journal.pone.0075321 (2013)).

HC-04 cells = experiment: HC-04 hepatocyte viability / cytotoxicity (Annexin-V, PI flow cytometry); assay type: cell-based, human; details: 96 hour treatment
Procedure: Detection of Annexin-V positive and PI-positive cells in hepatocyte cultures was done by flow cytometry according to the manufacturer's instruction (Invitrogen™, Life Technologies, Grand Island, N.Y., USA).
Hepatocyte cytotoxicity assay. Hepatocyte cytotoxicity assays were carried out in triplicate at two concentrations of inhibitory compounds using HC-04 cells as previously described. Flow cytometry was used to assess two cytotoxicity markers via staining, namely propidium iodine (PI) and Annexin-V.

PfAtg8 = experiment: Immunoblot analysis of PfAtg8 in P. falciparum blood stage cultures; assay type: cell-based; details: 100 μM, five-hour treatment
Excerpt: Immunoblot analysis of P. falciparum blood stage. […] RBCs were harvested with centrifugation, lysed with 0.2% saponin, and RBC lysate was removed through three 1× PBS washes. Parasites were harvested by centrifugation and washed in 1× PBS with Complete EDTA-free protease inhibitors (Roche) and lysed by repeated vortexing and boiling in SDS reducing sample buffer. […] HRP-conjugated secondary antibodies (Southern Biotech) were detected by SuperSignal West Femto (Thermo Scientific) or Amersham™ ECL™ Prime (GE Healthcare) chemiluminescent substrate. AP-conjugated secondary antibodies (EMD Millipore) were detected using NBT/BCIP (Promega) colorimetric stain. Total protein levels were visualized with ProAct™ Membrane Stain (Amresco) and quantified with ImageJ. Parasite morphology at time of harvesting was visualized with light microscopy at 100× magnification on Olympus BX53 system microscope (Olympus America, Inc.).

[1] = target: T2, PfAtg8-PfAtg3 interaction (Plasmodium falciparum, UniProt Q8IJK2); experiment: SPR protein-protein interaction assay, PfAtg8-PfAtg3 (VLS compounds); assay type: binding, P. falciparum; details: read-out: SPR-IC50; dose-dependent inhibition of plasmodial Atg8-Atg3
T2 construct: rows headed: SPR-IC50
T2 sequence (Q8IJK2 1-124 C32I/C119S/C122S): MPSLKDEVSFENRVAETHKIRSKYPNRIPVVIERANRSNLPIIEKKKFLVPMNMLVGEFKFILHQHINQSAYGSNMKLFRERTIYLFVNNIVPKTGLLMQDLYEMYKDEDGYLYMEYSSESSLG
Procedure: Surface Plasmon Resonance (SPR) protein-protein interaction assay. All measurements were carried out on a BiaCore 3000 instrument. We used the previously described SPR competition assay to test inhibition of the PfAtg8-PfAtg3 and hLC3-hAtg3 interaction. The standard running buffer was 10 mM HEPES, 150 mM NaCl, 0.01% Tween 20, adjusted to pH 7.5. Prior to performing SPR assays, all solutions were sterile filtered and degassed for 1 h at room temperature. For small molecule inhibitor studies, the same running buffer was supplemented with 1% DMSO. All dose dependency measurements were carried out in triplicate and corrected for DMSO absorption effects using double referencing with interspersed blank injections and an untreated flow cell on the SPR chip and the SPR analysis software Scrubber 2.0 (BioLogics). For each interaction pair, a new CM5 SPR chip was used. To exclude surface decay during the experiment, positive control injections were interspersed every 12th injection. For all interaction studies, the Atg3 homologue was immobilized and the corresponding Atg8 partner was passed as an analyte over the chip in either the presence or absence of small molecule inhibitors, dissolved to 100 mM in 100% DMSO and tested at 500 μM final concentration. Prior to the immobilization of Atg3 to an SPR chip, a pH scouting from pH 6.0 to pH 4.0 in intervals of 0.5 pH units was carried out to determine the best pre-concentration conditions for immobilization. Briefly, flow cells of an SPR chip were activated using N-hydroxysuccinimide (NHS) and 1-ethyl-3-(3-dimethylaminopropyl)carbodiimide (EDC) for 7 min with a flow rate of 20 μl/min. For PfAtg3 immobilization, a solution of 50 μg/ml of PfAtg3 in 10 mM sodium acetate pH 5.0 was passed over one flow cell until >500 Response Units (RU) were captured. The same procedure was followed for the immobilization of hAtg3. Activated free binding sites on the chip were blocked using 1 M ethanolamine for an additional 7 min. All experiments were carried out at 25° C. with a 40 μl/min flow rate and 75 s contact time, followed by a 1 min dissociation time and a 25 μl regeneration injection of 2 M MgCl2.
The dose-response curves were used to determine the approximate concentration of analyte (PfAtg8 or hLC3) needed to obtain a particular response unit (RU), typically in the range of 100-150 RU's. A fixed amount of analyte was then passed over the chip resulting in at least 100-150 response units (RU) in the absence of small molecules.

PfAtg8^CM = PfAtg8^CM (Plasmodium falciparum, UniProt Q8IJK2); experiment: Thermal shift assay; details: 100 μM to 2 mM

Compound | effect on hAtg3-hLC3 binding (hLC3-hAtg3 interaction) | IC50 (P. falciparum 3D7) [µM] | reduction of the number of infected HC-04 cells (P. falciparum 3D7-GFP; 30 μM) [%] | GFP fluorescence intensity (P. falciparum 3D7-GFP) | cell viability of HC-04 cells (HC-04 cells) | increase of PfAtg8 protein levels compared to the loading control (PfAtg8) | mobility of Atg8 (PfAtg8) | IC50 [1] [µM] | effect on Tm of PfAtg8^CM (PfAtg8^CM)
Cc1cccn2cc(C(=O)NCC3CCN(Cc4cnc[nH]4)C3)nc12 (stereo not drawn) [Compound C24, N-([1-(1H-imidazol-5-ylmethyl)pyrrolidin-3-yl]methyl)-8-methyl-imidazo[3,2-a] pyridine-2-carboxamide] | significant increase in binding | – | – | – | – | – | – | – | –
Cc1cccc(CNC(=O)NCC2CCN(Cc3ccccn3)C2)c1 (stereo not drawn) [Compound C25, 1-[(3-methylphenyl)methyl]-3-([1-pyridin-2-ylmethyl-pyrrolidin-3-yl]methyl)urea] | – | 19 ± 6 | 30 | little effect | did not affect cell viability | over 10 fold | retarded, indicative of the unlipidated Atg8 species | 18.5 ± 2.1 | dose-dependent decrease
